{"source": "ChEMBL document CHEMBL2401711", "about": "“Recent progress and future options in the development of GLP-1 receptor agonists for the treatment of diabesity” (Bioorg Med Chem Lett, 2013)", "key": {"[1]": {"assay": "Terminal half life in type 2 diabetes patient at 10 ug, sc bid", "type": "ADME, organism-based", "details": "human, in vivo, read-out: beta t1/2 (converted)"}, "Albumin": {"target": "Albumin (Homo sapiens, UniProt P02768)", "sequence (P02768 whole entry)": "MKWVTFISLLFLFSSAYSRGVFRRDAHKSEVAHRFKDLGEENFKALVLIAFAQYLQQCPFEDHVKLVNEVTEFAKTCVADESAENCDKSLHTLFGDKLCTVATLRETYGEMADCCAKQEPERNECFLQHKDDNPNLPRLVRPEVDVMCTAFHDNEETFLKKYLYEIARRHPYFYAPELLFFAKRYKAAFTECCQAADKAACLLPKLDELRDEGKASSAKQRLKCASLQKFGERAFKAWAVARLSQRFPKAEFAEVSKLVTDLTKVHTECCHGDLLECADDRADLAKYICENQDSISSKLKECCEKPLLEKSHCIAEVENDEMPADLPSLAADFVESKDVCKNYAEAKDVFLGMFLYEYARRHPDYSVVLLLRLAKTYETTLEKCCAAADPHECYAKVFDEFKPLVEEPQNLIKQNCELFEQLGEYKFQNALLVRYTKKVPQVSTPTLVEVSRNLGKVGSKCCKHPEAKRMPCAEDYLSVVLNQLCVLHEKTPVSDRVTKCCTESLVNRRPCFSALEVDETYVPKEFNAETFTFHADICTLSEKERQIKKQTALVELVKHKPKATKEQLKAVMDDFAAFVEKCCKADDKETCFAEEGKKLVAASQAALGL", "assay": "Binding affinity to serum albumin (unknown origin) relative to control", "type": "ADME", "details": "isolated protein"}, "[2]": {"assay": "(§1) Half life in human", "type": "ADME, organism-based", "details": "in vivo"}, "Homo sapiens [3]": {"species_on_record": "Homo sapiens", "assay": "as §1", "type": "ADME, organism-based", "details": "in vivo"}, "Homo sapiens [4]": {"system": "Homo sapiens", "assay": "Antidiabetic activity in type 2 diabetes patient assessed as reduction of body weight at => 0.8 mg administered once per week measured after 12 weeks (reference value: 1.2 kg)", "type": "functional, organism-based"}, "Homo sapiens [5]": {"system": "Homo sapiens", "assay": "Antidiabetic activity in type 2 diabetes patient assessed as reduction of HbA1c at => 0.2 mg administered once per week measured after 12 weeks (reference value: 0.5%)", "type": "functional, organism-based", "design": "scale not given: the % may be the effect or the level left"}, "Homo sapiens [6]": {"system": "Homo sapiens", "assay": "Toxicity in type 2 diabetes patient assessed as gastro-intestinal side effects at 10 to 20 mg administered once per week up to 104 weeks", "type": "organism-based", "details": "in vivo, 17472 h"}}, "data": [{"compound": "CC[C@H](C)[C@H](NC(=O)[C@H](C)NC(=O)CNC(=O)[C@H](Cc1ccccc1)NC(=O)[C@H](CC(N)=O)NC(=O)[C@H](CC(N)=O)NC(=O)[C@H](CO)NC(=O)[C@H](CO)NC(=O)[C@H](Cc1c[nH]cn1)NC(=O)[C@@H](NC(=O)[C@H](CC(C)C)NC(=O)[C@H](Cc1ccccc1)NC(=O)[C@H](CC(N)=O)NC(=O)[C@H](C)NC(=O)[C@H](CC(C)C)NC(=O)[C@H](CCCNC(=N)N)NC(=O)[C@H](CCC(N)=O)NC(=O)[C@@H](NC(=O)[C@H](C)NC(=O)[C@@H]1CSSC[C@H](NC(=O)[C@@H](N)CCCCN)C(=O)N[C@@H](CC(N)=O)C(=O)N[C@@H]([C@@H](C)O)C(=O)N[C@@H](C)C(=O)N[C@@H]([C@@H](C)O)C(=O)N1)[C@@H](C)O)C(C)C)C(=O)N[C@@H](CC(C)C)C(=O)N[C@@H](CO)C(=O)N[C@@H](CO)C(=O)N[C@H](C(=O)N[C@@H](CC(N)=O)C(=O)N[C@H](C(=O)NCC(=O)N[C@@H](CO)C(=O)N[C@@H](CC(N)=O)C(=O)N[C@H](C(=O)N[C@@H](Cc1ccc(O)cc1)C(=O)O)[C@@H](C)O)C(C)C)[C@@H](C)O", "note": "[AMYLIN]", "values": [{"measurement": "half-life", "setting": "[1]", "result": 144, "unit": "min"}]}, {"compound": "CCCCCCCCCCCCCCCC(=O)N[C@@H](CCC(=O)NCCCC[C@H](NC(=O)[C@H](C)NC(=O)[C@H](C)NC(=O)[C@H](CCC(N)=O)NC(=O)CNC(=O)[C@H](CCC(=O)O)NC(=O)[C@H](CC(C)C)NC(=O)[C@H](Cc1ccc(O)cc1)NC(=O)[C@H](CO)NC(=O)[C@H](CO)NC(=O)[C@@H](NC(=O)[C@H](CC(=O)O)NC(=O)[C@H](CO)NC(=O)[C@@H](NC(=O)[C@H](Cc1ccccc1)NC(=O)[C@@H](NC(=O)CNC(=O)[C@H](CCC(=O)O)NC(=O)[C@H](C)NC(=O)[C@@H](N)Cc1cnc[nH]1)[C@@H](C)O)[C@@H](C)O)C(C)C)C(=O)N[C@@H](CCC(=O)O)C(=O)N[C@@H](Cc1ccccc1)C(=O)N[C@H](C(=O)N[C@@H](C)C(=O)N[C@@H](Cc1c[nH]c2ccccc12)C(=O)N[C@@H](CC(C)C)C(=O)N[C@H](C(=O)N[C@@H](CCCNC(=N)N)C(=O)NCC(=O)N[C@@H](CCCNC(=N)N)C(=O)NCC(=O)O)C(C)C)[C@@H](C)CC)C(=O)O", "note": "[LIRAGLUTIDE]", "values": [{"measurement": "Activity", "setting": "Albumin", "result": 99, "unit": "%"}, {"measurement": "half-life", "setting": "[2]", "result": 11, "unit": "days"}]}, {"compound": "SEMAGLUTIDE [listing 1 of 2 here]", "values": [{"measurement": "t1/2", "setting": "Homo sapiens [3]", "result": 160, "unit": "h"}]}, {"compound": "SEMAGLUTIDE [listing 2 of 2 here]", "values": [{"measurement": "Activity", "setting": "Homo sapiens [4]", "result": "< 4.8", "unit": "kg"}, {"measurement": "Activity", "setting": "Homo sapiens [5]", "result": "< 1.7", "unit": "%"}]}, {"compound": "TASPOGLUTIDE", "values": [{"measurement": "Activity", "setting": "Homo sapiens [6]", "result": 34, "unit": "%"}]}]}
